In general, IC50 refers to the concentration that inhibits the measured activity by half.

The values that follow come from patent publication US10016438B2, “Bicyclic heterocycles as FGFR4 inhibitors” (Incyte Corporation, priority 2015, dated 2018).

SMILES strings stand for the structures.

One assay concerns the target FGFR1 (Homo sapiens (Human), UniProt P11362). In words: FGFR Enzymatic Assay (FRET peptide phosphorylation), FGFR1. Conditions: read-out: FGFR1 IC50; pre-incubated for 4 hours.
The target in a further assay is FGFR4 (Homo sapiens (Human), UniProt P22455). In words: FGFR Enzymatic Assay (FRET peptide phosphorylation), FGFR4. As to conditions: for FGFR1/FGFR4 / FGFR2/FGFR4 / FGFR3/FGFR4: IC50 ratio showing FGFR4 selectivity.
The target in the next assay is FGFR2 (Homo sapiens (Human), UniProt P21802). In words: FGFR Enzymatic Assay (FRET peptide phosphorylation), FGFR2. Conditions: read-out: FGFR2 IC50; pre-incubated for 4 hours.
For another assay, the target named is FGFR3 (Homo sapiens (Human), UniProt P22607). In words: FGFR Enzymatic Assay (FRET peptide phosphorylation), FGFR3. As to conditions: read-out: FGFR3 IC50; pre-incubated for 4 hours.
Setting [1] is: pre-incubated for 5 to 10 minutes.

Chain of FGFR4 (P22455 22-802): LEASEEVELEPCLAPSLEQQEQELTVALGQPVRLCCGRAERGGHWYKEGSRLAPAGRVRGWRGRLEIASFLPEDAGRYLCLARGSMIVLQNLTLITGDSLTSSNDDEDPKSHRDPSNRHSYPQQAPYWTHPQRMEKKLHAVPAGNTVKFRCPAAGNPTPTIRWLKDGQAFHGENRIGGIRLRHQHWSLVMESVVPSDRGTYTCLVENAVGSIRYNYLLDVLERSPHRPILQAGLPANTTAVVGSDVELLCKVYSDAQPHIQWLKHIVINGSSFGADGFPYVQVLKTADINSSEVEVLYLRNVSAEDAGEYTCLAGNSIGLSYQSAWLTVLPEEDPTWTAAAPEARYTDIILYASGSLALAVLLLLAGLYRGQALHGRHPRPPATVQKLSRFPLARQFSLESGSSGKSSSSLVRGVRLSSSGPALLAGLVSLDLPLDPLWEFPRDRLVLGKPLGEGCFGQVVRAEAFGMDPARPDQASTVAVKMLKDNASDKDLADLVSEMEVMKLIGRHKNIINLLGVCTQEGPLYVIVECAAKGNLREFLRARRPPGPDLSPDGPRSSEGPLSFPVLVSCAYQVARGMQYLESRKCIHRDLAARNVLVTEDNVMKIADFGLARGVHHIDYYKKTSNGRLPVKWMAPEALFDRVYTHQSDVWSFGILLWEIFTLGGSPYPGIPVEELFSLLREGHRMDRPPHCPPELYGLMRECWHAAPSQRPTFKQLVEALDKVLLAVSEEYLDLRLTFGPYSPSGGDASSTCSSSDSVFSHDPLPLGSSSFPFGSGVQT
Chain of FGFR1 (P11362 22-822): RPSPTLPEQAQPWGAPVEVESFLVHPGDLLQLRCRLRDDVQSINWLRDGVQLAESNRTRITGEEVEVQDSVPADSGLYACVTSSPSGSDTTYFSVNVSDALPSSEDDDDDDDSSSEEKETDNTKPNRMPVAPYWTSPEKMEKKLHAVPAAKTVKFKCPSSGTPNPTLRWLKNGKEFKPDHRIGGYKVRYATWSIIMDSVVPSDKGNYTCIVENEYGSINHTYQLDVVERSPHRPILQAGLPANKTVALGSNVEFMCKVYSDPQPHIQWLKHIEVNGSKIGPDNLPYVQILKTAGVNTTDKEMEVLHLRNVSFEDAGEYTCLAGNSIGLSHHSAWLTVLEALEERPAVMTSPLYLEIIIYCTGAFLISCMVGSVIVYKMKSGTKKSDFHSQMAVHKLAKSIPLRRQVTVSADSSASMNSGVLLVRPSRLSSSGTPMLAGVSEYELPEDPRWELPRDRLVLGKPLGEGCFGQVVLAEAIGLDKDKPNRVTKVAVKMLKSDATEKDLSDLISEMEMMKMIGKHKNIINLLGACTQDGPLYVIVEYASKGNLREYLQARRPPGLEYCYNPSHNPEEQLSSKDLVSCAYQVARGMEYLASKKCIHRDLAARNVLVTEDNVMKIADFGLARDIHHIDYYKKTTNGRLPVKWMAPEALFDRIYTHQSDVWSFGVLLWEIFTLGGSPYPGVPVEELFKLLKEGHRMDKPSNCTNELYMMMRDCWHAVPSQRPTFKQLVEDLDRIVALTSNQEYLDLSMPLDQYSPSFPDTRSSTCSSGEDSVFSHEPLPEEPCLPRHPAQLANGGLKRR
Chain of FGFR2 (P21802 22-821): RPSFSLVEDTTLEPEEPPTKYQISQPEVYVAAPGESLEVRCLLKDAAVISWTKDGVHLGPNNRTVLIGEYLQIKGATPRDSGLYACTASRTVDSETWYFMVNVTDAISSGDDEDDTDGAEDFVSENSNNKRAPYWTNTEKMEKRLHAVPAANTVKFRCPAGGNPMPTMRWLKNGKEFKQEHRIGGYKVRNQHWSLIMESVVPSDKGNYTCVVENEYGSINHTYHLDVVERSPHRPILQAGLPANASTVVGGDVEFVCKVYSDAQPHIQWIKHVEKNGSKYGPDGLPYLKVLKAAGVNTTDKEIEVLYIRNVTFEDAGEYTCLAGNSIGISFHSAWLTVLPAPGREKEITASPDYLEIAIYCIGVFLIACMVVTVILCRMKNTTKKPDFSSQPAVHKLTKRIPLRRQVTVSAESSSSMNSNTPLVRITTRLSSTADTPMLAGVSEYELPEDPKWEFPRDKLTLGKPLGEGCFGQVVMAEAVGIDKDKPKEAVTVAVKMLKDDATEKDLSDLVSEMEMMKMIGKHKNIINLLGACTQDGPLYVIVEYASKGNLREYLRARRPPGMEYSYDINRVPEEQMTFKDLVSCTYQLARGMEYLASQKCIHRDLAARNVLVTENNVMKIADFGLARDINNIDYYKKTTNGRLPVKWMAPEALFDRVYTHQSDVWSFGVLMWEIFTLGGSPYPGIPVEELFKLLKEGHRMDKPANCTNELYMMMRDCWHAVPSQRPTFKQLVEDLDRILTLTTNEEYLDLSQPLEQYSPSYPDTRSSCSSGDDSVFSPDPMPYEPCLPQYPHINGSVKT
Chain of FGFR3 (P22607 23-806): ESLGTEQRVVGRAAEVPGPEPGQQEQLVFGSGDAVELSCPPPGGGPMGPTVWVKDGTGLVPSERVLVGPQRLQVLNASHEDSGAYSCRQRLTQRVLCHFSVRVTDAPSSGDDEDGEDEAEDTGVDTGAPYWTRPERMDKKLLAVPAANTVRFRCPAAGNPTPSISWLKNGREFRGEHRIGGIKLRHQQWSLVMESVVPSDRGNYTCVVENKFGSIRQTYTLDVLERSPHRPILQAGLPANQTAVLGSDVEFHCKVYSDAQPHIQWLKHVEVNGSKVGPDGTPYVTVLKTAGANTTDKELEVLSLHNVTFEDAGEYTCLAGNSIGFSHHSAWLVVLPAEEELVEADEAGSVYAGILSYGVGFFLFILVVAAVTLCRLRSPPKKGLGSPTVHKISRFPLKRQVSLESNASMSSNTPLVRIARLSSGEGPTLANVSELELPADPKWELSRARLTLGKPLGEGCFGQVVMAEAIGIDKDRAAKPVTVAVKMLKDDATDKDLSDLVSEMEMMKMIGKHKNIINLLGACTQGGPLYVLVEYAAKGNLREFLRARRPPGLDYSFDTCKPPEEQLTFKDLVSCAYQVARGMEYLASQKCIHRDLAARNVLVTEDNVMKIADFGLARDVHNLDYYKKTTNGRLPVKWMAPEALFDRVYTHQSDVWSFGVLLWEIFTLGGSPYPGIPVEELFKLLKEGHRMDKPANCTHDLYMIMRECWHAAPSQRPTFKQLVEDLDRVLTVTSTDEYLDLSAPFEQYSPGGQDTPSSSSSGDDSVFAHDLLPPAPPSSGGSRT
Excerpt for FGFR1: (§1) The enzymes were purchased from Millipore or Invitrogen.
(§2) GraphPad prism3 was used to analyze the data. The IC50 values were derived by fitting the data to the equation for a sigmoidal dose-response with a variable slope. Y=Bottom+(Top−Bottom)/(1+10^((Log IC50−X)*HillSlope)) where X is the logarithm of concentration and Y is the response.
Excerpt for FGFR2: as §1, §2
Excerpt for FGFR3: as §1, §2
Excerpt for FGFR4: as §1, §2

In the case of `C=CC(=O)Nc1cnn(C[C@@H]2CCCO2)c1-c1cc2c(cn1)CN(c1c(F)c(OC)cc(OC)c1F)C(=O)C21CC1` [Example 31, (S)-N-(5-(2′-(2,6-difluoro-3,5-dimethoxyphenyl)-3′-oxo-2′,3′-dihydro-1′H-spiro[cyclopropane-1,4′-[2,7]naphthyridine]-6′-yl)-1-((tetrahydrofuran-2-yl)methyl)-1H-pyrazol-4-yl)acrylamide], the IC50 is greater than 200 nM at FGFR1; less than 10 nM on FGFR4 (read-out: FGFR4 IC50, pre-incubated for 4 hours); greater than 200 nM at FGFR2; greater than 200 nM on FGFR3. For the same molecule, on FGFR4 (pre-incubated for 4 hours), the FGFR1/FGFR4 is on record as greater than 100. For the same molecule, on FGFR4 (pre-incubated for 4 hours), the FGFR2/FGFR4 is reported as greater than 100. At FGFR4 (pre-incubated for 4 hours), the FGFR3/FGFR4 is given as greater than 100.
As to `C=CC(=O)Nc1cnn(Cc2cccnc2)c1-c1cc2c(cn1)CN(c1c(F)c(OC)cc(OC)c1F)C(=O)C21CC1` [Example 22, N-(5-(2′-(2,6-difluoro-3,5-dimethoxyphenyl)-3′-oxo-2′,3′-dihydro-1′H-spiro[cyclopropane-1,4′-[2,7]naphthyridine]-6′-yl)-1-(pyridin-3-ylmethyl)-1H-pyrazol-4-yl)acrylamide], on FGFR4 (pre-incubated for 4 hours), the FGFR1/FGFR4 is reported as greater than 100, the FGFR2/FGFR4 is on record as greater than 100 and the FGFR3/FGFR4 is on record as greater than 100.
Consider `C=CC(=O)Nc1cc(-c2cc3c(cn2)CN(c2c(F)c(OC)cc(OC)c2F)C(=O)C32CC2)ccc1CN1CCOCC1` [Example 12, N-(5-(2′-(2,6-difluoro-3,5-dimethoxyphenyl)-3′-oxo-2′,3′-dihydro-1′H-spiro[cyclopropane-1,4′-[2,7]naphthyridine]-6′-yl)-2-(morpholinomethyl)phenyl)acrylamide], for which, on FGFR4 (setting [1]), the FGFR1/FGFR4 is given as greater than 10, the FGFR2/FGFR4 was greater than 1 and the FGFR3/FGFR4 was greater than 1. Further, at FGFR4 (pre-incubated for 4 hours), the FGFR1/FGFR4 is reported as greater than 100, the FGFR2/FGFR4 is given as greater than 25 and the FGFR3/FGFR4 was greater than 10.
As for `C=CC(=O)Nc1cnn(Cc2ncn(C)n2)c1-c1cc2c(cn1)CN(c1c(F)c(OC)cc(OC)c1F)C(=O)C21CC1` [Example 23, N-(5-(2′-(2,6-difluoro-3,5-dimethoxyphenyl)-3′-oxo-2′,3′-dihydro-1′H-spiro[cyclopropane-1,4′-[2,7]naphthyridine]-6′-yl)-1-((1-methyl-1H-1,2,4-triazol-3-yl)methyl)-1H-pyrazol-4-yl)acrylamide], at FGFR4 (pre-incubated for 4 hours), the FGFR1/FGFR4 is listed as greater than 100, the FGFR2/FGFR4 was greater than 100 and the FGFR3/FGFR4 is greater than 100.
Take `C=CC(=O)Nc1cnn(CC2CCOCC2)c1-c1cc2c(cn1)CN(c1c(F)c(OC)cc(OC)c1F)C(=O)C21CC1` [Example 24, N-(5-(2′-(2,6-difluoro-3,5-dimethoxyphenyl)-3′-oxo-2′,3′-dihydro-1′H-spiro[cyclopropane-1,4′-[2,7]naphthyridine]-6′-yl)-1-((tetrahydro-2H-pyran-4-yl)methyl)-1H-pyrazol-4-yl)acrylamide]: on FGFR4 (pre-incubated for 4 hours), the FGFR1/FGFR4 is greater than 100, the FGFR2/FGFR4 is greater than 100 and the FGFR3/FGFR4 is greater than 100.
For `C=CC(=O)Nc1cnn(CC(=O)NC)c1-c1cc2c(cn1)CN(c1c(F)c(OC)cc(OC)c1F)C(=O)C21CC1` [Example 20, N-(5-(2′-(2,6-difluoro-3,5-dimethoxyphenyl)-3′-oxo-2′,3′-dihydro-1′H-spiro[cyclopropane-1,4′-[2,7]naphthyridine]-6′-yl)-1-(2-(methylamino)-2-oxoethyl)-1H-pyrazol-4-yl)acrylamide], the IC50 at FGFR1 was greater than 200 nM. Besides, on FGFR4 (pre-incubated for 4 hours), the FGFR1/FGFR4 is greater than 50, the FGFR2/FGFR4 is recorded as greater than 100 and the FGFR3/FGFR4 is on record as greater than 100. In addition, on FGFR2, the half-inhibitory concentration (IC50) was greater than 200 nM. Also, the IC50 at FGFR3 was greater than 200 nM.
For `C=CC(=O)Nc1cnn(CCO)c1-c1cc2c(cn1)CN(c1c(F)c(OC)cc(OC)c1F)C(=O)C21CC1` [Example 17, N-(5-(2′-(2,6-difluoro-3,5-dimethoxyphenyl)-3′-oxo-2′,3′-dihydro-1′H-spiro[cyclopropane-1,4′-[2,7]naphthyridine]-6′-yl)-1-(2-hydroxyethyl)-1H-pyrazol-4-yl)acrylamide], on FGFR4 (pre-incubated for 4 hours), the FGFR1/FGFR4 is reported as greater than 100, the FGFR2/FGFR4 was greater than 100 and the FGFR3/FGFR4 was greater than 100.
